Square brackets hold non-standard residues; d marks the D form. Ends that are not written are not given here. Peptide text beside a SMILES is read from it. * marks the point of attachment. Acetyl(2-naphthyl) = O=C(Cc1ccc2ccccc2c1)*
Columns and labels:
[1] = Proteinase K stability (compound remaining); type: in vitro ADME; details: Tritirachium album (source organism of proteinase K); initial concentration 1.0 mM, 0.1 mg/ml proteinase K, 24 h; read-out: compound remaining after 24 h
Procedure: (§1) Both Nap-GFFY-G-KWYQNMIR (Comp. 1) and Nap-G^DF^DF^DY-G-KWYQNMIR (Comp. 2) could form hydrogels by heating and cooling, namely L-gel and D-gel (Fig. 1A–C). The ultrastructures of the L-gel and D-gel were both nanofibers (Fig. 1D and E). The mechanical properties of the L-gel and D-gel remained relatively constant (Fig. 1F and G). […] The CAC values of the AMG-P8, L-gel and D-gel were 354.91, 84.25 and 86.62 μM, respectively (Fig. 1I and J). […] That was the result of an initial concentration of 1.0 mM AMG-P8 incubated with 0.1 mg/ml of proteinase K for 24 h, whereas the L-gel and D-gel still retained 62.21% and 78.06% of the compound, respectively, after 24 h (Fig. 1K).
(§2) Figure 1. Chemical structures of (A) AMG-P8 (KWYQNMIR); (B) Comp.1 (Nap-GFFYGKWYQNMIR) and (C) Comp.2 (Nap-G^DF^DF^DYGKWYQNMIR). TEM and optical images of (D) L-gel and (E) D-gel. Dynamic frequency and strain sweep measurements of L-gel and D-gel (F, G). (H) Circular dichroism spectra of L-gel and D-gel. Determination of CAC values of L-gel (I) and D-gel (J). (K) Compound remaining of the AMG-P8, L-gel and D-gel for an initial concentration of 1.0 mM incubated with 0.1 mg/ml of proteinase K for 24 h. TEXT PRINTED IN THE PICTURE: (I) L- gel: CAC=84.25 μM | (J) D- gel: CAC=86.62 μM DOUBTS OF THE COPYIST ABOUT THIS PICTURE: L- gel, CAC: small print, 84.25 could be 84.26 or 64.25 / D- gel, CAC: small print, 86.62 could be 88.62 or 86.82

[2] = tested on: human dental pulp cells (HDPCs); type: cell-based
Procedure: The HDPCs (1 × 10^5 cells/well) in the six well plates were treated with basal medium, AMG-P8, L-gel, D-gel, EMPs for 21 days. After fixed in the 4% paraformaldehyde for 15 min, the mineralized nodules were stained with 1% Alizarin Red (Solarbio, Beijing, China) for 10 min and washed in double-distilled water to eliminate floating colors. Images were captured with a Ti-S microscope (Nikon, Japan). For quantitative analysis of calcified nodules, 10% cetylpyridinium chloride (CPC; Sigma, USA) was used to dissolve Alizarin red. One milliliter of 10% CPC per well was added and shook for 30 min. The absorbance value was measured at 560 nm using a multifunctional microplate reader (Tecan Ltd., Männedorf, Switzerland).

[3] = tested on: human dental pulp cells (HDPCs); experiment: Western blot of DSPP, DMP-1 and ALP in HDPCs; type: cell-based; details: D-gel and U0126 for 7 and 14 days, P < 0.05, in words
Procedure: The healthy premolars and third molars extracted for orthodontic or other reasons were collected from patients (14–22 years old) visited Tianjin Stomatological Hospital. This study had been approved by the Ethics Committee of Tianjin Stomatological Hospital (Approval number: 2018012). The informed consent was obtained from each patient. The dental pulp tissue was dissected within 4 h after tooth extraction, minced into 1 mm^3 pieces with sterile scissors and transferred to a cell culture flask containing alpha-modified Eagle’s medium (α-MEM, Gibco, California, USA) supplemented with 10% fetal bovine serum (FBS, Gibco, New York, NY, USA), 100 U/ml penicillin and 100 μg/ml streptomycin (PS, Sigma, California, USA). The cells were cultured in a 5% CO2 incubator at 37°C. The HDPCs at 3–4 passage were used in this study.
The HDPCs (2 × 10^5) were treated under different conditions for different time points. The EMPs (1 µM) were also added to the HDPCs as an extra control group. Then the cells were harvested and lysed in 200 µL lysis buffer (Beyotime, Shanghai, China) and centrifuged (12 000 rpm for 10 min, at 4°C). The protein concentration was evaluated with a BCA kit (Solarbio, Beijing, China). The protein was mixed with 5× loading buffer and heated at 95°C for 5 min, separated by precast PAGE gel (Beyotime, Shanghai, China) and transferred to polyvinylidene fluoride membranes. […]

[4] = tested on: MAPK-ERK1/2 pathways in HDPCs; experiment: Western blot of phospho-ERK1/2 in HDPCs; type: cell-based, human; details: 10 µM inhibitor pretreatment 1 h then D-gel 1 h, P < 0.05, in words
Procedure: The HDPCs (2 × 10^5) were treated under different conditions for different time points. The EMPs (1 µM) were also added to the HDPCs as an extra control group. Then the cells were harvested and lysed in 200 µL lysis buffer (Beyotime, Shanghai, China) and centrifuged (12 000 rpm for 10 min, at 4°C). The protein concentration was evaluated with a BCA kit (Solarbio, Beijing, China). The protein was mixed with 5× loading buffer and heated at 95°C for 5 min, separated by precast PAGE gel (Beyotime, Shanghai, China) and transferred to polyvinylidene fluoride membranes. After blocked at room temperature for 15 min, then incubated with the primary antibody (DSPP, DMP-1, Smad2/3, c jun, p-c jun, c fos, p-c fos, c jun B) (Santa Cruz, California, USA), [p-ERK1/2, ERK1/2, alkaline phosphatase (ALP), p-Smad2/3, GAPDH] (Beyotime, Shanghai, China). Then, the membranes were incubated with the goat anti-rabbit IgG-HRP secondary antibody or goat anti-mouse IgG-HRP secondary antibody for 1 h, respectively. Then, an ultrasensitive chemiluminescence kit (Beyotime, Shanghai, China) was used to detect the protein bands. A chemiluminescence imager (Bio-Rad, California, USA) was used to scan the protein bands. The Image Lab software was used to analyze the relative protein expression levels. […]

proteinase K = proteinase K (Parengyodontium album, UniProt P06873); experiment: Proteinase K stability (compound remaining); type: in vitro ADME; details: initial concentration 1.0 mM, 0.1 mg/ml proteinase K
proteinase K, sequence (P06873 106-384, species assumed): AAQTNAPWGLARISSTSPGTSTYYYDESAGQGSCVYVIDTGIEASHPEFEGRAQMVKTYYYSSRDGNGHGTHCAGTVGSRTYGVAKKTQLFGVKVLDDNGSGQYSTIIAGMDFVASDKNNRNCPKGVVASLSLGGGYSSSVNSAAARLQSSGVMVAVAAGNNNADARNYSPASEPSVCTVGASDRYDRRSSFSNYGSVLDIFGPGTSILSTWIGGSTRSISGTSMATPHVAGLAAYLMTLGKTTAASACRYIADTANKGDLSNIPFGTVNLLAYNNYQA
Procedure: as §1, §2

[5] = Solubility of the peptide; type: physicochemical; details: in words

CC[C@H](C)[C@H](NC(=O)[C@H](CCSC)NC(=O)[C@H](CC(N)=O)NC(=O)[C@H](CCC(N)=O)NC(=O)[C@H](Cc1ccc(O)cc1)NC(=O)[C@H](Cc1c[nH]c2ccccc12)NC(=O)[C@H](CCCCN)NC(=O)CNC(=O)[C@@H](Cc1ccc(O)cc1)NC(=O)[C@@H](Cc1ccccc1)NC(=O)[C@@H](Cc1ccccc1)NC(=O)CNC(=O)Cc1ccc2ccccc2c1)C(=O)N[C@@H](CCCNC(=N)N)C(=O)O [D-gel] ({Acetyl(2-naphthyl)}-G[dF][dF][dY]GKWYQNMIR-OH)
remaining at 24 h, 1 mM [1]: 78.1% | Alizarin red OD value as percent of the EMPs group [2]: about 80%

CC[C@H](C)[C@H](NC(=O)[C@H](CCSC)NC(=O)[C@H](CC(N)=O)NC(=O)[C@H](CCC(N)=O)NC(=O)[C@H](Cc1ccc(O)cc1)NC(=O)[C@H](Cc1c[nH]c2ccccc12)NC(=O)[C@H](CCCCN)NC(=O)CNC(=O)[C@H](Cc1ccc(O)cc1)NC(=O)[C@H](Cc1ccccc1)NC(=O)[C@H](Cc1ccccc1)NC(=O)CNC(=O)Cc1ccc2ccccc2c1)C(=O)N[C@@H](CCCNC(=N)N)C(=O)O [L-gel] ({Acetyl(2-naphthyl)}-GFFYGKWYQNMIR-OH)
remaining at 24 h, 1 mM [1]: 62.2%

N#CC(=C(/N)Sc1ccccc1N)/C(C#N)=C(/N)Sc1ccccc1N [U0126]
effect on D-gel-induced expression of DSPP and ALP [3]: suppressed | effect on D-gel-induced phospho-ERK1/2 upregulation [4]: specifically blocked

KWYQNMIR [AMG-P8]
time within which the peptide was hydrolyzed (proteinase K): ≤ 30 min | solubility [5]: good solubility
